The target in data set [1] is T1, human α3β4 nAChR (Homo sapiens, UniProt P30926+P32297).
T1 construct: expressed in transfected cells; host or cells: HEK293
The data set is described as follows: Radioligand displacement at human α3β4 nAChR, [3H]epibatidine, HEK293 cells. Format: binding. The procedure:
(§1) The affinity of the test compounds for human α4β2 and α3β4 nAChR was determined as described above. In brief, HEK293 cells stably expressing human α4β2 or α3β4 nAChR [66] were cultured. […] Nonspecific binding was determined in the presence of 300 μM (−)-nicotine tartrate. Incubation of the samples, separation of free from receptor-bound radioligand, and data evaluation were performed as described above.
(In general: Loss of bound radioactivity is the signal in a displacement assay; it reports binding, not function.)

The target in data set [2] is rat α6β2* nAChR (Rattus norvegicus, UniProt P12390+P43143). Briefly: [3H]epibatidine binding to antibody-immobilized native rat α6β2* nAChR from striatum. The note with it: read-out: Affinity (Ki in nM) rα6β2*, immunoimmobilization with anti-rα6 antibody, [3H]epibatidine 0.1 nM. The procedure: The specificity of the anti-α6 antibody was tested as described. The receptors were prepared and immobilized as previously described by the subunit-specific antibody. […] Incubations were performed in a buffer containing 50 mM Tris-HCl, pH 7, 150 mM NaCl, 5 mM KCl, 1 mM MgCl2, 2.5 mM CaCl2, 2 mg∙mL^−1 BSA, and 0.05% Tween 20. Specific ligand binding was defined as total binding minus the binding in the presence of 100 nM (±)-epibatidine dihydrochloride hydrate.
rat α6β2* nAChR, sequence (P43143 31-493): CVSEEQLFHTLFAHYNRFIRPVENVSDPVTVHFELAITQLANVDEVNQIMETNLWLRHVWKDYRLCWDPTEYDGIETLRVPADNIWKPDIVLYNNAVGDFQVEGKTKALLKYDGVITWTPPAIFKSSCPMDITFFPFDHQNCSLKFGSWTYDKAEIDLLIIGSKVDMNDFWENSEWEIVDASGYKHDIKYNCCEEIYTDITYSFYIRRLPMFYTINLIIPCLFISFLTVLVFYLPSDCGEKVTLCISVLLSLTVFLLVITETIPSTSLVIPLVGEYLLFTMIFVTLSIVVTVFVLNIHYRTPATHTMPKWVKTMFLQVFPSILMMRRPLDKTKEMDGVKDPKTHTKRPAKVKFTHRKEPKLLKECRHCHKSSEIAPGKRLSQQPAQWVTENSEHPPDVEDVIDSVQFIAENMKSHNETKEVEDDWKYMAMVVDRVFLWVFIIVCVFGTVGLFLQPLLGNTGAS
rat α6β2* nAChR, sequence (P12391 31-464, further chain): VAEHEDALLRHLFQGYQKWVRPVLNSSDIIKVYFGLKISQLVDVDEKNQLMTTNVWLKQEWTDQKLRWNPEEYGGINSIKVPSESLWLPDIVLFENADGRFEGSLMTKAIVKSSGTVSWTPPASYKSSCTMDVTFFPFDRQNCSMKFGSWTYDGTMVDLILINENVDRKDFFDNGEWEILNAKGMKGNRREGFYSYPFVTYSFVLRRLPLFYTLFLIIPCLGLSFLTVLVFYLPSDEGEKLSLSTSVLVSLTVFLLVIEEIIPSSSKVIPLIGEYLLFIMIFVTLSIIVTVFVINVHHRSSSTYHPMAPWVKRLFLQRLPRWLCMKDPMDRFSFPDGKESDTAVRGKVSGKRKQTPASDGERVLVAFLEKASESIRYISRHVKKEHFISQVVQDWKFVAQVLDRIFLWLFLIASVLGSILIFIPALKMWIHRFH
rat α6β2* nAChR, sequence (P12390 25-500): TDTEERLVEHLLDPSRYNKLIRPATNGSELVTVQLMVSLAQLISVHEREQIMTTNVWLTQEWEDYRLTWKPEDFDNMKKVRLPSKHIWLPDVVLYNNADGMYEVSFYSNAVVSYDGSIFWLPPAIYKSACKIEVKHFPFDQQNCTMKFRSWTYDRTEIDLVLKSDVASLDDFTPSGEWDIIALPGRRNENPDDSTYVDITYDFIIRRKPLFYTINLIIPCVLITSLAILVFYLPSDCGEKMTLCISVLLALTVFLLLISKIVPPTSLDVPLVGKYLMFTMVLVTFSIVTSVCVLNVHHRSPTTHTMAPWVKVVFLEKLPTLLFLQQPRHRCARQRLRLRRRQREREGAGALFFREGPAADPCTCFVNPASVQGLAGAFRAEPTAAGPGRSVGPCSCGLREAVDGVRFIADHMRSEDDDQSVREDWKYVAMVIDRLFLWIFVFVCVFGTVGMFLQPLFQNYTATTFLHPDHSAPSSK
The experimental data obtained from the binding experiments were analyzed by means of a non-linear least square procedure using the LIGAND program. The Ki values of the test compounds were also determined by means of the LIGAND program by simultaneously fitting the data obtained from three to five independent saturation and competition binding experiments.

Data set [3] has as its target T2, human α7 nAChR (Homo sapiens, UniProt P36544).
T2 construct: expressed in transfected cells; host or cells: SH-SY5Y
The data set is described as follows: Radioligand displacement at human α7 nAChR, [3H]methyllycaconitine, SH-SY5Y cells. Format: binding. The settings on record: for Selectivity (Ki ratio) α7/α3β4: Ki hα3β4 divided by Ki hα7; for Selectivity (Ki ratio) α7/α4β2: Ki hα4β2 divided by Ki hα7.

Data set [4] concerns the target T3, human 5-HT3 receptor (Homo sapiens, UniProt P46098).
T3 construct: host or cells: HEK-293
T3 sequence (P46098 24-478): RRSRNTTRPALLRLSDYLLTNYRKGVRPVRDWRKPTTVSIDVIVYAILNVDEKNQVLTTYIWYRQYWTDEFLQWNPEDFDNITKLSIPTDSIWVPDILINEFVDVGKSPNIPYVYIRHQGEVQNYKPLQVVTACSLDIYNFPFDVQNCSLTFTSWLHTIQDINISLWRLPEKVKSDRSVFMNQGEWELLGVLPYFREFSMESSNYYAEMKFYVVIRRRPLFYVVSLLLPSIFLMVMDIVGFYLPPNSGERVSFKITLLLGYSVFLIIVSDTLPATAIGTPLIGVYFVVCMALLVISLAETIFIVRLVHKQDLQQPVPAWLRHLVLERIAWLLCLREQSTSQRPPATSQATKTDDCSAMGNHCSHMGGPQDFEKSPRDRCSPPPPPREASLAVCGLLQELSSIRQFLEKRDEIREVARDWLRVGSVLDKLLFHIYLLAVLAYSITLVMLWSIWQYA
Briefly: Radioligand binding at human 5-HT3 receptor, [3H]GR65630 (Eurofins Panlabs). The note with it: read-out: 5-HT3 percentage of inhibition.

Data set [5] deals with T4, human α4β2 nAChR (Homo sapiens, UniProt P17787+P43681).
T4 construct: expressed in transfected cells; host or cells: HEK293
T4 sequence (P43681 29-627 limits assumed): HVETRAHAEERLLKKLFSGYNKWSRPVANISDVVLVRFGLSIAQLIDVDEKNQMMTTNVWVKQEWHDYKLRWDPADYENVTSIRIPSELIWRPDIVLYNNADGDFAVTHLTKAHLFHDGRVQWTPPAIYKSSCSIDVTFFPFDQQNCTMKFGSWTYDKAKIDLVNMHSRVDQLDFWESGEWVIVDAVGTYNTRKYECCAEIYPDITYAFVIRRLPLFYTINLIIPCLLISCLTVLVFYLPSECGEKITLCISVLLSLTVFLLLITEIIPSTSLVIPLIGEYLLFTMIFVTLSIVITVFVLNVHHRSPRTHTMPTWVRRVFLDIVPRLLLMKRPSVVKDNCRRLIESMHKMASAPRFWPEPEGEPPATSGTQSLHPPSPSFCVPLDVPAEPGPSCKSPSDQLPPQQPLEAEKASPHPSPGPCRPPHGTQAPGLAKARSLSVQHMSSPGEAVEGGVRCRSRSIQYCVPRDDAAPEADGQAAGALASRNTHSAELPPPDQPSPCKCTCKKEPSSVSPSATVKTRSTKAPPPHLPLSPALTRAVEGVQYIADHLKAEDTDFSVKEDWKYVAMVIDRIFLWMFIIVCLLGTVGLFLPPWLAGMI
T4 sequence (P17787 26-502): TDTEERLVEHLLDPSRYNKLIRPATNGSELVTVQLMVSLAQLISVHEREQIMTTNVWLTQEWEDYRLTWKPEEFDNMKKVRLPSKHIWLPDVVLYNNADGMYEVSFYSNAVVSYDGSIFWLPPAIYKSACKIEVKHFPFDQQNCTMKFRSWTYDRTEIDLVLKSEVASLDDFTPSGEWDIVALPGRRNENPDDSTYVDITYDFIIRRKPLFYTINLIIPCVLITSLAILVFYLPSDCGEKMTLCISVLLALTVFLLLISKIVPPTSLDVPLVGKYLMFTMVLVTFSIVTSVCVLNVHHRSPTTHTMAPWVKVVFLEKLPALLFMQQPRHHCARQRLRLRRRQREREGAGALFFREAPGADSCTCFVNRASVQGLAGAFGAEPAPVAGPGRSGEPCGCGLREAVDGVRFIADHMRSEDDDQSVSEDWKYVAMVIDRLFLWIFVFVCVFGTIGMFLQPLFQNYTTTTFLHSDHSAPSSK
The data set is described as follows: Radioligand displacement at human α4β2 nAChR, [3H]epibatidine, HEK293 cells. Format: binding. The procedure: as §1

The target of data set [6] is α3β4 nAChR. Also noted: method as in PMID 24050653. The note with it: rat receptor subtype; cited from earlier work.
The target in data set [7] is α7 nAChR. The note with it: [125I]α-bungarotoxin labelled rat cortical membranes; cited from earlier work.
In data set [8] the target is α4β2 nAChR. The settings on record: cited from earlier work.
Data set [9] addresses T5, α7 nAChR (Macaca mulatta, UniProt Q866A2).
T5 construct: from tissue; host or cells: brain of a living rhesus monkey
The data set is described as follows: Comparative PET study in a rhesus monkey. Format: in vivo, rhesus monkey (Macaca mulatta). The procedure:
One male rhesus monkey (Macaca mulatta, 6 years old, body weight = 10 kg) underwent two PET imaging sessions with [^18F]10a and [^18F]10b, respectively. The scans were conducted 19 days apart. The monkey was initially sedated by intramuscular ketamine at 10 mg∙kg^−1 at ~2 h before the PET scan and anesthetized by 1.5%–3% isoflurane throughout the imaging session. PET scan was performed using a FOCUS-220 PET scanner (Siemens Preclinical Solutions, Knoxville, TN, USA). After a transmission scan, 167 MBq of [^18F]10a (specific activity of 362 GBq∙μmol^−1) or 185 MBq of [^18F]10b (specific activity of 159 GBq·μmol^−1) were administered intravenously. Emission data were acquired in list mode for 240 min. Raw list-mode PET data was histogrammed (frames of 6 × 30 s; 3 × 1 min; 2 × 2 min; 46 × 5 min to scan termination) and reconstructed with 2D filtered back projection, using a 0.15 cm^−1 Shepp filter and including corrections for scanner normalization, detector dead time, randoms, and radiation scatter and attenuation. The PET images were then registered to MR images, acquired with a Siemens 3 T Trio scanner, with a 6-parameter rigid body registration. The MR native space was then normalized using nonlinear affine registration to a high-resolution rhesus monkey atlas using BioImage Suite 3.01 (http://www.bioimagesuite.org/index.html). Time-activity curves were extracted by mapping atlas-defined regions to PET native space using the optimal transformation matrices calculated in the registration and normalization steps. Regions extracted included amygdala, caudate, cerebellum, cingulate, cortical regions (frontal, occipital, and temporal cortex), hippocampus, putamen, thalamus, and pons.

Where [10] appears, read: Affinity (Ki in nM) hα3β4, stably transfected HEK-293 cells, [3H]epibatidine.
The mark [11] stands for this setting: 0.1 μM concentration of test compound, [3H]GR65630 binding.
The mark [12] stands for this setting: stably transfected HEK-293 cells, [3H]epibatidine, read-out: Affinity (Ki in nM) hα4β2.
The mark [13] stands for this setting: stably transfected SH-SY5Y cells, [3H]methyllycaconitine, read-out: Affinity (Ki in nM) hα7.
The mark [14] stands for this setting: stably transfected HEK-293 cells, [3H]epibatidine, read-out: Affinity (Ki in nM) hα3β4.

What is called melting point is the temperature of the solid-liquid transition. A word on the Ki: it is a dissociation constant, usually derived from enzyme kinetics or from competition with a known ligand. The inhibition is the relative decrease from the control value, in per cent.

Values joined by “and” are separate entries in the source; they are usually repeats but may differ in a detail not shown here. Identical values can stand only once. Like-named read-outs stand apart in the source and are kept apart here.

T2 sequence (P36544 23-502): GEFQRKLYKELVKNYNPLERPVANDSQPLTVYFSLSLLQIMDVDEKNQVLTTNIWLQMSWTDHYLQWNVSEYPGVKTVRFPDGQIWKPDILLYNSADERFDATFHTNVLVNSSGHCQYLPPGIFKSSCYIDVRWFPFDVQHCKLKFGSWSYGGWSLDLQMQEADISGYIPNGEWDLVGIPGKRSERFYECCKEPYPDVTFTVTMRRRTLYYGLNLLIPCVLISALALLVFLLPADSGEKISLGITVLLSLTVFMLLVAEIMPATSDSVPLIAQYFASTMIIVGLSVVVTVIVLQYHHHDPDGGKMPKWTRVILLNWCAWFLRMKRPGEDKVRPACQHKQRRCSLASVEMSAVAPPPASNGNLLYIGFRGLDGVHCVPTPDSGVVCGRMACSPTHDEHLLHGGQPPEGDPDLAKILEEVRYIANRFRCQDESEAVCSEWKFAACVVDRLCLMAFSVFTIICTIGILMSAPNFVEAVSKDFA
T1 sequence (P32297 32-505): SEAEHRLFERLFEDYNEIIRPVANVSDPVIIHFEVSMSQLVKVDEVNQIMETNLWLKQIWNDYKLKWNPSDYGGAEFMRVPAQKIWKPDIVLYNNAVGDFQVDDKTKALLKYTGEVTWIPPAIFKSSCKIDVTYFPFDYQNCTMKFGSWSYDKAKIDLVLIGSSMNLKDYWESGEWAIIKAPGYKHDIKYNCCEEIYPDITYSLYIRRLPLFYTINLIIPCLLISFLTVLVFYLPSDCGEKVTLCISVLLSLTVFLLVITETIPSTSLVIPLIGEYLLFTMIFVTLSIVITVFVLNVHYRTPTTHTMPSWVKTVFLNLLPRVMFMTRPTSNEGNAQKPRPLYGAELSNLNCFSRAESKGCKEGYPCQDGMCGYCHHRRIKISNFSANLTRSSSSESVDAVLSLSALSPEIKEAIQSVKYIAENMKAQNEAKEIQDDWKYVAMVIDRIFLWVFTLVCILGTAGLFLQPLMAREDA
T1 sequence (P30926 22-498): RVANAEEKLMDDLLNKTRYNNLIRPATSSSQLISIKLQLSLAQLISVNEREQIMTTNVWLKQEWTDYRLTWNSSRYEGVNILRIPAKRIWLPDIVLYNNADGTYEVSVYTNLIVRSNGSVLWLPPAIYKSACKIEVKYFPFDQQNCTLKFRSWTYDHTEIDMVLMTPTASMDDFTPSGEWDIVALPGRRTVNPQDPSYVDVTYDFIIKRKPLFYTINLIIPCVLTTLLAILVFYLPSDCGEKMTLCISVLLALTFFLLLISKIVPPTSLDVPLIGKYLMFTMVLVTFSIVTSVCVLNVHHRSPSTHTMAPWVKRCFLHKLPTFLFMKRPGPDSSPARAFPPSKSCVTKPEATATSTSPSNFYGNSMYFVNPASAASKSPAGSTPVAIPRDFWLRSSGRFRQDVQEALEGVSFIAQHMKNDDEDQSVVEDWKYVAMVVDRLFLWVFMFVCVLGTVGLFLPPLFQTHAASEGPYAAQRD
T5 sequence (Q866A2 23-502): as the sequence (P36544 23-502) above, with N171S, R186K, V373M, V376A counted along it

`O=[N+]([O-])c1ccc2c(c1)-c1ccc(N3CCN4CCC3CC4)cc1S2(=O)=O`: the melting point was 291 to 294 °C (dec.).

With `O=S1(=O)c2ccccc2-c2ccc(N3CCN4CCC3CC4)cc21` [Compound 10], the melting point is 238.5 to 240 °C (dec.). In data set [1] (setting [10]), this molecule registered a Ki of 49.6 ± 14.7 nM. In addition, the Ki in [2] worked out at 517 ± 186 nM. Besides, in [3], the Ki was determined as 0.51 ± 0.32 nM, the “Selectivity (Ki ratio) α7/α3β4” value came to 97 and the “Selectivity (Ki ratio) α7/α4β2” value came out at 623. For the same molecule, in [4], the inhibition at 0.1 µM turned out to be 35%. In [5], this molecule showed a Ki of 318 ± 43.3 nM.

On to `O=S1(=O)c2cc(N3CCN4CCC3CC4)ccc2-c2cccc(F)c21` [Compound 10b, 3-(1,4-Diazabicyclo[3.2.2]nonan-4-yl)-6-fluorodibenzo[b,d]thiophene 5,5-dioxide], for which the Ki in [1] (setting [10]) is 43 nM and 42.3 nM; in [2], 435 ± 152 nM; in data set [6] it was 709 nM; in data set [7] it was 0.4 nM; in [5] (setting [12]) it was 211 ± 108 nM. In [4] (setting [11]), the inhibition at 0.1 µM is 42%.

On to `O=S1(=O)c2ccccc2-c2cc(F)c(N3CCN4CCC3CC4)cc21` [Compound 10c, 3-(1,4-Diazabicyclo[3.2.2]nonan-4-yl)-2-fluorodibenzo[b,d]thiophene 5,5-dioxide], for which the melting point is 305 to 309 °C (dec.). Besides, the affinity in [1] corresponds to a Ki of 279 ± 24.4 nM. Besides, in data set [2], the Ki is 1390 ± 340 nM. In data set [3], the “Selectivity (Ki ratio) α7/α3β4” value stood at 33 and the “Selectivity (Ki ratio) α7/α4β2” value turned out to be 59. Besides, in [3] (relative to 10a and 10b), the “fold lower affinity at the α7 subtype” value is reported as “about 10 fold”. In addition, the Ki in [3] (setting [13]) was 8.53 ± 1.74 nM. Moreover, in data set [4] (setting [11]), the inhibition at 0.1 µM came out at 26%. This molecule had a Ki in data set [5] of 507 ± 212 nM.

As to `CN1C2CCCC1CN(c1ccc3c(c1)S(=O)(=O)c1ccc(F)cc1-3)C2` [Compound 12a], the melting point is 214 to 217 °C (dec.). Besides, in data set [1] (setting [10]), the affinity corresponds to a Ki of 96 ± 1.48 nM. Also, the Ki in data set [2] came to 1180 ± 360 nM. Also, in [3], the “Selectivity (Ki ratio) α7/α3β4” value worked out at 3 and the “Selectivity (Ki ratio) α7/α4β2” value was determined as 5. For the same molecule, the inhibition constant (Ki) in data set [3] (setting [13]) was 30.9 ± 8.72 nM. In [4] (setting [11]), the inhibition at 0.1 µM stood at 10%. The Ki in [5] (setting [12]) came out at 141 ± 11.7 nM.

In the case of `CN1C2CCCC1CN(c1ccc3c(c1)S(=O)(=O)c1c(F)cccc1-3)C2` [Compound 12b, 6-Fluoro-3-(9-methyl-3,9-diazabicyclo[3.3.1]nonan-3-yl)dibenzo[b,d]thiophene 5,5-dioxide], the melting point was 264 to 272 °C (dec.). In data set [1] (setting [10]), this molecule gave a Ki of 94.8 ± 6.48 nM. Further, the Ki in data set [2] is 1190 ± 230 nM. Besides, in [3], the “Selectivity (Ki ratio) α7/α3β4” value turned out to be 1 and the “Selectivity (Ki ratio) α7/α4β2” value is 3. Also, the Ki in data set [3] (setting [13]) is 105 ± 23.9 nM. The inhibition at 0.1 µM in [4] (setting [11]) came to 11%. For the same molecule, the Ki in data set [5] (setting [12]) was 301 ± 148 nM.

Turning to `CN1C2CCC1CN(c1ccc3c(c1)S(=O)(=O)c1c(F)cccc1-3)C2` [Compound 13b], the melting point is 260.5 to 262.5 °C (dec.). In data set [1] (setting [14]), the Ki was determined as 224 ± 51.7 nM. The Ki in data set [2] is 2260 ± 540 nM. Moreover, in [3], the “Selectivity (Ki ratio) α7/α3β4” value worked out at 5 and the “Selectivity (Ki ratio) α7/α4β2” value came to 10. The Ki in data set [3] (setting [13]) worked out at 40.9 ± 7.77 nM. For the same molecule, in data set [4] (setting [11]), the inhibition at 0.1 µM is 10%. For the same molecule, the Ki in data set [5] (setting [12]) came out at 426 ± 197 nM.

In the case of `CN1CC2CCC(C1)N2c1ccc2c(c1)S(=O)(=O)c1c(F)cccc1-2` [Compound 14b], the melting point was 254.5 to 256 °C (dec.). In addition, the Ki in data set [1] (setting [14]) is above 5000 nM. Besides, the Ki in data set [2] came to 1450 ± 370 nM. In data set [3], the “Selectivity (Ki ratio) α7/α3β4” value was above 500 and the “Selectivity (Ki ratio) α7/α4β2” value is given as above 400. For the same molecule, the Ki in data set [3] (setting [13]) was determined as 9.26 ± 2.23 nM. In addition, in data set [4] (setting [11]), the inhibition at 0.1 µM was 4%. The Ki in data set [5] (setting [12]) is above 4000 nM.

Regarding `O=S1(=O)c2cc(N3CCN4CCC3CC4)ccc2-c2cccc(F)c21` [[^18F]10b, reference compound], the Ki in data set [8] is 562 nM.

For the molecule `O=S1(=O)c2cc(N3CCN4CCC3CC4)ccc2-c2cccc([18F])c21` [[^18F]10b, reference compound], the “total volume of distribution VT” value came to 26.8 mL∙cm^−3 in data set [9] (cerebellum) and 46.7 mL∙cm^−3 in data set [9] (thalamus).

Take `Fc1ccc(-c2nnc(N3CCN4CCC3CC4)o2)cc1` [[^18F]NS10743]: the Ki in data set [8] was above 10000 nM.
